From patent US11479536B1 (King Abdulaziz University, priority 2022, dated 2022) come the findings set out here.

Converted amounts (≈) assume the structure as drawn.

A short description of data set [1]: Maximum kinetic aqueous solubility. It counts as physicochemical. Conditions: phosphate buffer with 2% DMSO, kinetic from dmso stock, 2% DMSO/PBS, pH 7.4, read-out: maximum kinetic aqueous solubility (saturation). On the procedure: Solubility assays were performed using Millipore MultiScreen® HTS-PFC Filter Plates designed for solubility assays (EMD Millipore, Billerica, Mass.). Assays were run in triplicate. The 96-well plates consist of two chambers separated by a filter. Liquid handling was performed using JANUS® Verispan and MTD workstations (Perkin Elmer, Waltham, Mass.). 4 μL of MAK-1 or MAK-6 solution (10 mM in DMSO) was added to 196 μL of phosphate buffer (45 mM potassium phosphate, 45 mM sodium acetate, 45 mM ethanolamine, pH=7.4) in the top chamber to give a final DMSO concentration of 2% and a theoretical drug concentration of 200 μM. Plates were gently shaken for 90 min and then subjected to vacuum. Insoluble drug is captured on the filter. 160 μL of the filtrate is transferred to 96-well Griener UV Star® analysis plates (Sigma-Aldrich, St. Louis, Mo.) containing 40 μL of acetonitrile. The test compound concentration in the filtrate is measured by UV absorbance on a Spectromax® Plus microplate reader (Molecular Devices, Sunnyvale, Calif.) using Softmax Pro software v.5.4.5. Absorbances at 5 wavelengths (280, 300, 320, 340, and 360 nm) were summed to generate the UV signal. Standard curves were generated by adding 4 μL of five concentrations of test compound in DMSO to 40 μL of acetonitrile in UV Star plates followed by 156 μL of the appropriate solubility medium. […]

Data set [2] is described as follows: Stability in mouse liver microsomes. It counts as in vitro ADME. As to the method: Both mouse and human liver microsomes were obtained from Merck KGaA, (Darmstadt, Germany), Cat. No. M9441 (Mouse liver microsomes) and M0317 (Human liver microsomes). Assays were conducted in triplicate in 96-deep well polypropylene plates. […] At five time points, reaction mixture aliquots were transferred to 96-shallow well stop plates on ice containing acetonitrile with 0.1 μM propafenone. […] Standard curves for test compound were generated using 5 concentrations in triplicate that were processed as above but with zero incubation time. Stop plates were centrifuged at 2000 g for 10 min and then supernatant aliquots were transferred to a Waters Aquity® UPLC 700 μL 96-well sample plate with cap mat (Waters, Milford, Mass.). The amount of compound remaining in the supernatant was quantified by LC/MS/MS using a Waters Xevo TQ MS (electrospray positive mode) coupled to a Waters Aquity® UPLC (BEH column, C18). Propafenone was used as the internal standard. GraphPad® Prism v 5.04 was used for nonlinear fitting of time course data to generate t1/2 values.
For orientation: Microsomes from liver hold many membrane-bound enzymes, among them those of drug oxidation.

A further data set concerns the target T1, CYP3A4 (Homo sapiens, UniProt P08684).
T1 construct: purchased Fisher Scientific; host or cells: insect supersomes
The data set is described as follows: Inhibition assay of human CYP450 enzymes, 3A4. Format: in vitro ADME. As to the method: The two compounds MAK-1 and MAK-6 were assessed for its ability to inhibit the three major human CYP450 enzymes, 3A4, 2D6 and 2C9. Assays were run in triplicate. Expressed enzymes in insect supersomes (Fisher Scientific, Waltham, Mass.) were used to minimize non-specific binding and membrane partitioning issues (McMasters et al., 2007). The 3A4 assay uses testosterone as a substrate and analysis was performed by LC/MS/MS on a Waters Xevo TQ instrument as described above using positive electrospray ionization. Assay acceptance criteria was 20% for all standards and 25% for the LLOQ. The 2D6 and 2C9 assays use fluorescent substrates (3-[2-(N,N-diethylamino)ethyl]-7-methoxy-4-methylcoumarin for 2D6; 7-methoxy-4-(trifluoromethyl)coumarin for 2C9) and were analyzed on an Envision plate reader. GraphPad® Prism v 5.04 was used for nonlinear fitting of data to generate IC50 values.

Data set [3] is described as follows: Stability in mouse plasma. Format: in vitro ADME. Conditions: 37° C., duration of the assay (5 h). As to the method:
The assay is conducted at 37° C. in triplicate. Test compounds or procaine (positive control) are tested at a final concentration of 1 μM in either 2.5% DMSO/CD-1 mouse plasma (Innovative Research, Novi, Mich.; sodium heparin added as anticoagulant; pH adjusted to 7.4 with 2N HCl on day of use) or 2.5% DMSO/PBS (pH 7.4: 136.9 mM NaCl, 2.68 mM KCl, 8.1 mM Na2HPO4, 1.47 mM KH2PO4, 0.9 mM CaCl2, 0.49 mM MgCl2). At seven time points, reaction mixture aliquots were transferred to 96-shallow well stop plates on ice containing acetonitrile with 0.1 μM propafenone. Samples were analyzed by LC/MS/MS on a Waters Xevo TQ instrument as described above using positive electrospray ionization. Assay acceptance criteria was 20% for all standards and 25% for the LLOQ. GraphPad® Prism v. 5.04 was used for nonlinear fitting of data to generate t1/2 values.

The next data set concerns T47D cell line. The data set is described as follows: Cytotoxic assay (MTT) in monolayer model, T47D. It counts as cell-based. As to conditions: Homo sapiens, 48 h, read-out: IC50 cytotoxic assay against T47D, monolayer. As to the method: 1×10^6 cells of the human breast cancer cell lines MCF7 and T47D were seeded and grown at 37° C. with 5% CO2, in a Dulbecco's Modified Eagle Medium (DMEM) with 10% fetal bovine serum (Sigma). The cells were maintained until they reached the confluence over 90%. Then, the cells were subjected to the different treatment conditions before performing the assays.
The cytotoxic effects of MAK compounds were assessed against MCF7 and T47D cell lines using MTT cell viability assay. The cells were treated for 48 hours with different concentrations of each MAK compound and the control cells were subjected to the vehicle (0.1% DMSO). Then, 10% of 5 mg/mL MTT was added to each well containing treated or control cells, and mixture was incubated at 37° C. for 3 hours. After that, the MTT-containing media was replaced with 100 μL DMSO and incubated for 10 minutes at room temperature before measuring the absorbance for each well at 570 nm. According to the measured absorbance, the IC50 was calculated for each compound. All the experiments were performed in biological and experimental replicates.

T1 sequence (P08684 whole entry): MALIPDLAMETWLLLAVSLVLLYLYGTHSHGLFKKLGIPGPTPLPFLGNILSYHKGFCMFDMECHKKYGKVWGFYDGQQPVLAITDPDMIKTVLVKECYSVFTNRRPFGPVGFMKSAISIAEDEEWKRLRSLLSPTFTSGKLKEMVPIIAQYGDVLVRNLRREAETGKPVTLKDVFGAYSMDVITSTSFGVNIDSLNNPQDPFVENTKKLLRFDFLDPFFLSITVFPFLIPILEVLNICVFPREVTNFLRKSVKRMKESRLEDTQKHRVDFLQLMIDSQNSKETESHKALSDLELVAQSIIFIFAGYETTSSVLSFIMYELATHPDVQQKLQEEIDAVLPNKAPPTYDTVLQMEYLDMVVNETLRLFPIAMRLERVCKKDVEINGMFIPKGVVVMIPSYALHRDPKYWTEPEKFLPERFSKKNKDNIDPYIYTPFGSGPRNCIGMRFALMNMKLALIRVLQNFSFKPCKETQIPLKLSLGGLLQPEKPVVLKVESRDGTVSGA

As for `COc1cccc(C(=O)Nc2ccc(CC(=O)NCc3ccccc3)cc2)c1` [MAK-1, N-(4-(2-(benzylamino)-2-oxoethyl)phenyl)-3-methoxybenzamide], in data set [1], the solubility kinetic at 90 min turned out to be 9.4 µM (≈ 3.52 µg/mL). In addition, the “loss of compound in mouse liver microsomes” value in data set [2] (lacking NADPH) is on record as “non-significant loss”. Further, the half-life in data set [2] (male, CD-1, mouse, pooled liver microsomes, in the presence of NADPH, 37° C., read-out: stability to oxidative metabolism in mouse liver microsomes (t1/2)) stood at 35 min. The “inhibition of CYP3A4” value against CYP3A4 (concentrations up to 10 μM) is on record as “no inhibition”. Besides, the “stability in mouse plasma” value in data set [3] is “stable”.

Consider `O=C(Cc1ccc(NC(=O)c2cccc(Cl)c2)cn1)NCc1ccccc1` [MAK-6, N-(6-(2-(benzylamino)-2-oxoethyl)pyridin-3-yl)-3-chlorobenzamide], for which the half-maximal inhibitory concentration (IC50) in the data set on T47D cell line amounted to 1.2 nM. For the same compound, the solubility kinetic at 90 min in data set [1] is 3.7 µM (≈ 1.41 µg/mL). The “inhibition of CYP3A4” value against CYP3A4 (concentration not given) was “did not display any inhibitory activity”.

As usually defined, the IC50 is the concentration needed to halve the response being measured.
